In patent US11591318B2, “Bipyrazole derivatives as JAK inhibitors” (Incyte Corporation, priority 2013, dated 2023) one finds JAK2/JAK1 data, which are given here for 4 compounds.

Structures can show the parent of a compound that is named as a salt. Some results are limits rather than exact numbers.

In this assay the test system is human JAK1 (a.a. 837-1142). Put plainly: In vitro JAK kinase assay (HTRF), JAK1. The class given is biochemical. The settings on record: ratio of IC50 values at 1 mM ATP. The procedure:
The catalytic activity of JAK1, JAK2 or JAK3 was assayed by measuring the phosphorylation of a biotinylated peptide. The phosphorylated peptide was detected by homogenous time resolved fluorescence (HTRF). […] Reactions were carried out at room temperature for 1 hour and then stopped with 20 μL 45 mM EDTA, 300 nM SA-APC, 6 nM Eu-Py20 in assay buffer (Perkin Elmer, Boston, Mass.). Binding to the Europium labeled antibody took place for 40 minutes and HTRF signal was measured on a Fusion plate reader (Perkin Elmer, Boston, Mass.).

In the case of `Cc1[nH]ncc1-c1cnn(C2(CC#N)CN(c3cnc(C(=O)N[C@@H](C)C(F)(F)F)cn3)C2)c1` [Example 1, 5-[3-(Cyanomethyl)-3-(3′-methyl-1H,1′H-4,4′-bipyrazol-1-yl)azetidin-1-yl]-N-[(1S)-2,2,2-trifluoro-1-methylethyl]pyrazine-2-carboxamide trifluoroacetate], the JAK2/JAK1 is above 10. Then `C[C@H](NC(=O)c1cc(F)c(N2CC(CC#N)(n3cc(-c4cn[nH]c4)cn3)C2)cc1F)C(F)(F)F` [Example 5, 4-[3-(1H,1′H-4,4′-Bipyrazol-1-yl)-3-(cyanomethyl)azetidin-1-yl]-2,5-difluoro-N-[(1S)-2,2,2-trifluoro-1-methylethyl]benzamide trifluoroacetate], with above 10. Then `Cc1n[nH]cc1-c1cn(C2(CC#N)CN(c3cnc(C(=O)NC(C)C)cn3)C2)nc1C` [Example 6, 5-[3-(Cyanomethyl)-3-(3,3′-dimethyl-1H,1′H-4,4′-bipyrazol-1-yl)azetidin-1-yl]-N-isopropylpyrazine-2-carboxamide trifluoroacetate], with above 10. Take `Cc1n[nH]cc1-c1cnn(C2(CC#N)CN(c3cnc(C(=O)NC(C)C)cn3)C2)c1` [Example 2, 5-[3-(Cyanomethyl)-3-(3′-methyl-1H,1′H-4,4′-bipyrazol-1-yl)azetidin-1-yl]-N-isopropylpyrazine-2-carboxamide trifluoroacetate]: the JAK2/JAK1 is above 10.
